# Key:
# [1] = molecular target: benzodiazepine site of the GABA-A receptor; assay: Benzodiazepine Receptor Binding Assay (inhibition of 3H-flunitrazepam binding); settings: ca. 3 nM 3H-flunitrazepam, 10-20 min at 25° C., membranes; over 10,000 = not active
# [2] = system: adult male rat (conflict behavior suppressed by punishment); assay: Suppression of anxiety in the adult male rat (Conflict, Vogel); assay type: in vivo; settings: ip, minimum effective dose, greater than 10 = active dose not determined, read-out: Conflict MED
# From the text: The experiment was run the next day.
# [3] = system: metrazol-induced convulsions in mice; assay: Suppression of Metrazol-Induced Convulsions; assay type: in vivo, mouse (male CD1 mice); settings: Mus musculus, ip, sc metrazol CD90, block of clonic convulsions, greater than 30 = active dose not determined
Compound,IC50 [1],minimal effective dose [2],ED50 [3]
"CCN1C2=C(C(=O)Nc3c(F)cccc3F)C(=O)CN2c2ccccc21 [CP #7, N-(2,6-Difluorophenyl)-1,2-dihydro-4-ethyl-4H-pyrrolo[1,2-a]benzimidazole-3-carboxamide-2(1H)-one]",> 10 µM,> 10 mg/kg,> 10 mg/kg
"CN1C2=C(C(=O)Nc3c(F)cccc3F)C(=O)C(C)(C)N2c2ccccc21 [CP #6, N-(2,6-Difluorophenyl)-1,2-dihydro-1,1,4-trimethyl-4H-pyrrolo[1,2-a]benzimidazole-3-carbozamide-2(1H) one]",> 10 µM,> 10 mg/kg,1 to 10 mg/kg
"CN(C)c1ccc(NC(=O)C2=C3Nc4ccccc4N3CC2=O)cc1 [CP #2, N-(4-Dimethylaminophenyl)-1,2-dihydro-2-oxo-4H-pyrrolo[1,2-a]benzimidazole-3-carboxamide]",1.74 µM,> 10 mg/kg,> 30 mg/kg
"O=C1CN2C(=C1C(=O)Nc1c(F)cccc1F)Nc1ccccc12 [CP #5, N-(2,6-Difluorophenyl)-1,2-dihydro-2-oxo-4H-pyrrolo[1,2-a]benzimidazole-3-carboxamide]",0.0801 µM,< 10 mg/kg,6 mg/kg
"O=C1CN2C(=C1C(=O)Nc1ccc(F)cc1F)Nc1ccccc12 [CP #8, N-(2,4-Difluorophenyl)-1,2-dihydro-2-oxo-4H-pyrrolo[1,2-a]benzimidazole-3-carboxamide]",> 10 µM,> 10 mg/kg,

# More lines, main results first:
IC50 [1],Compound,minimal effective dose [2],ED50 [3]
> 10 µM,"O=C1CN2C(=C1C(=O)Nc1cc(F)ccc1F)Nc1ccccc12 [CP #3, N-(2,5-Difluorophenyl)-1,2-dihydro-2-oxo-4H-pyrrolo[1,2-a]benzimidazole-3-carboxamide]",> 10 mg/kg,
7.22 µM,"O=C1CN2C(=C1C(=O)Nc1ccncc1)Nc1ccccc12 [CP #1, N-(4-Pyridyl)-1,2-dihydro-4H-pyrrolo[1,2-a]benzimidazole-3-carboxamide-2(1H)-one]",> 10 mg/kg,> 10 mg/kg

# Source: patent US5521200A, “2-oxo-pyrrolo[1,2-A]benzimidazole-3-carboxyl derivatives useful in treating central nervous system disorders” (priority 1994, dated 1996)
